Test results from patent publication US20090208550A1, “Methods and compositions for treating hepatic diseases” (priority 2007, published 2009).

Key:
AML-12 hepatocytic cells = assay: Fat accumulation in AML-12 cells: Oil Red O staining and cellular triglyceride (Example 7); details: twenty-four hours; for intracellular triglyceride levels / lipid accumulation by Oil Red O staining / blockade of the effect of NECA on hepatocyte triglyceride accumulation: NECA 10 mM; for blockade of the effect of NECA on hepatocyte triglyceride accumulation: MRS1706 1 mM
Experimental: Hepatocyte cell culture, triglyceride measurement and oil red O staining of hepatocytes. […] AML-12 Cells were grown in 1:1 mixture of DMEM-Ham's F-12 medium supplemented with 0.005 mg/ml insulin, 0.005 mg/ml transferrin, 5 ng/ml selenium, 40 ng/ml dexamethasone, 10% fetal bovine serum and antibiotics. Upon reaching 70-80% confluence the cells were treated for 6 hours in serum-free DMEM-Ham's F-12 medium and then treated with different adenosine receptor agonists, antagonists or vehicle (DSMO, 1.28×10^−5M), respectively. The method of the triglyceride measurement of hepatocytes is the same as the liver tissue. The cells were fixed with 10% neutral formalin, and Oil Red O staining as described above.

[1] = tested on: fatty acid synthase (FAS) mRNA; assay: Real-time PCR of FAS mRNA in cultured AML-12 hepatocytes; assay type: cell-based, mouse; details: AML-12 cells, 24 hours; for mRNA for FAS: 10^-6M, control 100.0%, n=3
Experimental: (§1) Total RNA was isolated from cultured hepatocytes using Trizol reagent (Invitrogen, USA) and RNA extracted according to the manufacturer's instructions, then dissolved in sterile DEPC water and stored at −80° C. 1 μg RNA of sample RNA was transcribed to cDNA with the GeneAmp RNA Core Kit (Applied Biosystems, Branchburg, N.J.). Primer sequences ATP citrate lyase (ACL): forward 5′-GAAGCTGACCTTGCTGAACC-3′, reverse 5′-CTGCCTCCAATGATGAGGAT-3′; fatty acid synthase (FAS): forward 5′-TGGGTTCTAGCCAGCAGAGT-3′, reverse: 5′-ACCACCAGAGACCGTTATGC-3′. PCR was performed with the SYBR Green PCR Kit (Applied Biosystems, Foster City, Calif.) following the manufacturer's instructions and carried out on the Mx3005P™ Q-PCR system (Stratagene, La Jolla, Calif.) in 50 μl volume. The number of copies for each amplicon was calculated by Mx3005P software, normalized to GAPDH and expressed as a dimensionless ratio.

[2] = tested on: ATP citrate lyase (ACL) mRNA; assay: Real-time PCR of ACL mRNA in cultured AML-12 hepatocytes; assay type: cell-based, mouse; details: AML-12 cells, 24 hours; for mRNA for ACL: 10^-6M, control 100.0%, n=3
Experimental: as §1

[3] = tested on: AML-12 mouse hepatocyte cell line; assay: Oil Red O staining, lipid content of AML-12 hepatocytes (Example 1); assay type: cell-based; details: AML-12 cells, 24 hours
[4] = tested on: ethanol-induced fatty liver in C57Bl/6 mice; assay: Ethanol-induced fatty liver in mice treated with adenosine receptor antagonists (Example 5); assay type: in vivo, mouse; details: ethanol diet 6 weeks, 50 mg/Kg/Day, versus ethanol-treated wild type mice
Excerpt: Mouse models of fatty livers and treatment. Mice were fed an ethanol-containing liquid Lieber-De-Carli diet (ethanol provides 350 Kcal/L) or a calorie equivalent diet supplemented with maltose (BioServ Inc., Frenchtown, N.J.) for 6 weeks. […] In first week, animals were gradually introduced to the ethanol diet following the manufacturer's instructions. Mice were sacrificed by CO2 narcosis at the end of the experiment and their livers were collected. Two wild type mice and one CD73 knockout mouse on an ethanol-containing diet died, and none of the antagonist-treated or other knockout mice died during the course of these experiments.
Hematoxylin-Eosin (H&E) and Oil Red O staining of liver sections. Livers were fixed with 10% neutral formalin, embedded in paraffin and stained with H&E for histological examination. Liver steatosis was graded as previously described (Hong et al., Hepatology (2004) 40:933-941) based on the semiquantitative estimation of the percentage of lipid-laden hepatocytes in the liver according to the following criteria: grade 0: no hepatocytes involved; grade 1: 1% to 25% of hepatocytes involved; grade 2: 26% to 50% of hepatocytes involved; grade 3: 51% to 75% of hepatocytes involved; and grade 4: 76% to 100% of hepatocytes involved. At least five random different high power fields (hpf) of each cross-section (400× magnification) were graded in a blinded way. […]
Measurements of serum AST and triglyceride. […] AST and triglyceride were measured by standard techniques in the Clinical Laboratory of Bellevue Hospital. […]
Materials and Methods. […] The liver and body of the mice were weighed on the day of sacrifice and the liver/total body weight ratio calculated. The serum AST and triglyceride and hepatic tissue triglyceride levels were also measured, as described in Example 3, supra. […]

[5] = tested on: ACL, FAS, ACCα, CPTI, PPARα, PPARγ and SREBP1 mRNA in mouse liver tissue; assay: Real-time PCR of hepatic mRNA expression in ethanol-fed mice (Example 6); assay type: in vivo; details: chronic ethanol ingestion, 50 mg/Kg/Day, n=5
Experimental: Real-time PCR quantitation of mRNA. Total RNA was isolated from liver tissue using Trizol reagent (Invitrogen, USA) and RNA extracted according to the manufacturer's instructions, then dissolved in sterile DEPC water and stored at −80° C. 1 μg of sample RNA was transcribed to cDNA with the GeneAmp RNA Core Kit (Applied Biosystems, Branchburg, N.J.). […] The number of copies for each amplicon was calculated by Mx3005P software, normalized to GAPDH and expressed as a dimensionless ratio.
Materials and methods. mRNA expression of genes in hepatic tissue was assessed by Real-time PCR and normalized to GAPDH. […] The number of copies for each amplicon was calculated by Mx3005P software, normalized to GAPDH and expressed as a dimensionless ratio.

SMILES	intracellular triglyceride levels (AML-12 hepatocytic cells; CPA 1 mM)	lipid accumulation by Oil Red O staining (AML-12 hepatocytic cells; CPA 1 mM)	mRNA for FAS [1]	mRNA for ACL [2]	blockade of the effect of NECA on hepatocyte triglyceride accumulation (AML-12 hepatocytic cells; DPCPX 1mM)	serum AST levels [4]	further results
OC[C@H]1O[C@@H](n2cnc3c(NC4CCCC4)ncnc32)[C@H](O)[C@@H]1O [CPA, N6-cyclopentyladenosine]	increased	accumulated lipid	164.2±6.8%	181.4±12.9%			lipid content of hepatocytes ([3]; CPA 10^-6M, Oil Red O): significantly increased
CCCn1c(=O)c2[nH]c(C3CCCC3)nc2n(CCC)c1=O [DPCPX, 1,3 dipropyl-8-cyclopentylxantine]			105.8±5.3%	92.0±5.2%	partly blocked	significantly lower	blockade of the effect of CPA on hepatocyte triglyceride accumulation (AML-12 hepatocytic cells; CPA 1 mM, DPCPX 1mM): almost completely abrogated; blockade of the CPA-induced increase of mRNA for FAS [1]: completely blocked; blockade of the CPA-induced increase of mRNA for ACL [2]: completely blocked; ethanol-induced change of mRNA expression of ACCα, CPT1 and PPARα in liver [5]: reduced; ethanol-induced mRNA expression of ACL, FAS, PPARγ and SREBP1 in liver [5]: prevented the ethanol-induced increase in expression; blockade of the effect of CPA on lipid content of hepatocytes ([3]; CPA 10^-6M + DPCPX 10^-6M): nearly completely blocked
CCCn1c(=O)c2[nH]c(-c3ccc(OCC(=O)Nc4ccc(C(C)=O)cc4)cc3)nc2n(CCC)c1=O [MRS1706, N-(4-aceptylphenyl)-2-[4-(2,3,6,7-tetrahydro-2,6-dioxo-1,3-dipropyl-1H-purine-8-yl)phenoxy]acetamide]					almost completely abrogated		
CCNC(=O)[C@H]1O[C@@H](n2cnc3c(N)ncnc32)[C@H](O)[C@@H]1O [NECA, 5′-N-ethylcarboxamidoadenosine]	increased	accumulated lipid					
CCCn1c(=O)[nH]c(=O)c2[nH]cnc21 [enprofylline, 3-propylxanthine]						significantly lower	serum triglyceride levels [4]: significant reduction
